Common to all, as to format: cell-based
The species named for data set [1] is Homo sapiens. The data set is described as follows: Inhibition of P-gp in human HCT116/VM46 cells assessed as potentiation of vinblastine-induced cytotoxicity by measuring fold reduction in vinblastine IC50.
Data set [2] is filed under the species Homo sapiens. The data set is described as follows: Inhibition of P-gp in human Bel7402/5-FU cells assessed as increase in intracellular accumulation of Rh123 at 0.8 mg/ml preincubated for 48 hrs followed by Rh123 addition measured after 2 hrs by FACS analysis relative to control. (In flow cytometry, cells or beads pass a laser one at a time.)
Data set [3] is filed under the species Homo sapiens. The data set is described as follows: Inhibition of P-gp in human Bel7402/5-FU cells assessed as increase in intracellular accumulation of doxorubicin at 0.4 mg/ml preincubated for 48 hrs followed by doxorubicin addition measured after 2 hrs by FACS analysis relative to control.
The species named for data set [4] is Homo sapiens. The experiment in a line: Inhibition of P-gp in human K562/VCR cells assessed as potentiation of doxorubicin-induced cytotoxicity by measuring fold reduction in doxorubicin IC50.
For data set [5], the species on record is Homo sapiens. The experiment in a line: Inhibition of P-gp in human SW620/AD300 cells assessed as potentiation of doxorubicin-induced cytotoxicity by measuring fold reduction in doxorubicin IC50.
Data set [6] deals with T1, ATP-dependent translocase ABCB1 (Homo sapiens, UniProt P08183). The experiment in a line: Inhibition of MDR1 in human KB-C2 cells assessed as potentiation of vincristine-induced cytotoxicity by measuring fold reduction in vincristine IC50.
Another data set deals with K562/A02. The experiment in a line: Inhibition of P-gp in human K562/A02 cells assessed as potentiation of doxorubicin-induced cytotoxicity by measuring fold reduction in doxorubicin IC50.
The species named for data set [7] is Homo sapiens. The data set is described as follows: Inhibition of P-gp in human SW620/DOX300 cells assessed as potentiation of doxorubicin-induced cytotoxicity by measuring fold reduction in doxorubicin IC50.
For data set [8], the species on record is Homo sapiens. The experiment in a line: Inhibition of P-gp in human CEM/DOX5000 cells assessed as potentiation of doxorubicin-induced cytotoxicity by measuring fold reduction in doxorubicin IC50.
For data set [9], the species on record is Homo sapiens. The experiment in a line: Inhibition of P-gp in human Caco2 cells assessed as potentiation of doxorubicin-induced cytotoxicity by measuring fold reduction in doxorubicin IC50.
The test system of the next data set is NCI-H460. The experiment in a line: Inhibition of P-gp in human NCI-H460 resistant cells assessed as potentiation of doxorubicin-induced cytotoxicity by measuring fold reduction in doxorubicin IC50.
In data set [10] the target is T1, ATP-dependent translocase ABCB1. The experiment in a line: Inhibition of human MDR1 expressed in mouse L5178 cells assessed as accumulation of Rh123 by measuring fluorescence activity ratio preincubated for 10 mins followed by Rh123 addition measured after 20 mins by FACS analysis.
Data set [11] is filed under the species Homo sapiens. The data set is described as follows: Inhibition of P-gp in human KBV1 cells assessed as potentiation of vinblastine-induced cytotoxicity by measuring fold reduction in vinblastine IC50 at 50 uM.
Another data set deals with MES-SA/Dx5. The experiment in a line: Inhibition of P-gp in human MES-SA/Dx5 cells assessed as potentiation of paclitaxel-induced cytotoxicity.
Data set [12] is filed under the species Homo sapiens. The data set is described as follows: Inhibition of P-gp in human MCF7/DOX cells assessed as potentiation of doxorubicin-induced cytotoxicity by measuring fold reduction in doxorubicin IC50 at 5 uM.
The species named for data set [13] is Homo sapiens. The data set is described as follows: Inhibition of P-gp in human MCF7/DOX cells assessed as potentiation of mitoxantrone-induced cytotoxicity by measuring fold reduction in mitoxantrone IC50 at 50 uM after 48 hrs by MTT assay.
The species entered for data set [14] is Homo sapiens. The experiment in a line: Inhibition of P-gp in human A549/DDP cells assessed as potentiation of doxorubicin-induced cytotoxicity.
Data set [15] concerns the target Multidrug resistance-associated protein 1 (Homo sapiens, UniProt P33527). The data set is described as follows: Inhibition of MRP1 in human MCF7/ADR cells assessed as potentiation of mitoxantrone-induced cytotoxicity by measuring fold reduction in mitoxantrone IC50 at 50 uM after 0.5 to 4 hrs by fluorometric method.
The species entered for data set [16] is Homo sapiens. The data set is described as follows: Inhibition of P-gp in human MCF7/ADR cells assessed as potentiation of doxorubicin-induced cytotoxicity by measuring fold reduction in doxorubicin IC50 at 50 uM after 0.5 to 4 hrs by fluorometric method.

Residues, ends and D or L forms follow the SMILES beside them.

T1 sequence (P08183 whole entry): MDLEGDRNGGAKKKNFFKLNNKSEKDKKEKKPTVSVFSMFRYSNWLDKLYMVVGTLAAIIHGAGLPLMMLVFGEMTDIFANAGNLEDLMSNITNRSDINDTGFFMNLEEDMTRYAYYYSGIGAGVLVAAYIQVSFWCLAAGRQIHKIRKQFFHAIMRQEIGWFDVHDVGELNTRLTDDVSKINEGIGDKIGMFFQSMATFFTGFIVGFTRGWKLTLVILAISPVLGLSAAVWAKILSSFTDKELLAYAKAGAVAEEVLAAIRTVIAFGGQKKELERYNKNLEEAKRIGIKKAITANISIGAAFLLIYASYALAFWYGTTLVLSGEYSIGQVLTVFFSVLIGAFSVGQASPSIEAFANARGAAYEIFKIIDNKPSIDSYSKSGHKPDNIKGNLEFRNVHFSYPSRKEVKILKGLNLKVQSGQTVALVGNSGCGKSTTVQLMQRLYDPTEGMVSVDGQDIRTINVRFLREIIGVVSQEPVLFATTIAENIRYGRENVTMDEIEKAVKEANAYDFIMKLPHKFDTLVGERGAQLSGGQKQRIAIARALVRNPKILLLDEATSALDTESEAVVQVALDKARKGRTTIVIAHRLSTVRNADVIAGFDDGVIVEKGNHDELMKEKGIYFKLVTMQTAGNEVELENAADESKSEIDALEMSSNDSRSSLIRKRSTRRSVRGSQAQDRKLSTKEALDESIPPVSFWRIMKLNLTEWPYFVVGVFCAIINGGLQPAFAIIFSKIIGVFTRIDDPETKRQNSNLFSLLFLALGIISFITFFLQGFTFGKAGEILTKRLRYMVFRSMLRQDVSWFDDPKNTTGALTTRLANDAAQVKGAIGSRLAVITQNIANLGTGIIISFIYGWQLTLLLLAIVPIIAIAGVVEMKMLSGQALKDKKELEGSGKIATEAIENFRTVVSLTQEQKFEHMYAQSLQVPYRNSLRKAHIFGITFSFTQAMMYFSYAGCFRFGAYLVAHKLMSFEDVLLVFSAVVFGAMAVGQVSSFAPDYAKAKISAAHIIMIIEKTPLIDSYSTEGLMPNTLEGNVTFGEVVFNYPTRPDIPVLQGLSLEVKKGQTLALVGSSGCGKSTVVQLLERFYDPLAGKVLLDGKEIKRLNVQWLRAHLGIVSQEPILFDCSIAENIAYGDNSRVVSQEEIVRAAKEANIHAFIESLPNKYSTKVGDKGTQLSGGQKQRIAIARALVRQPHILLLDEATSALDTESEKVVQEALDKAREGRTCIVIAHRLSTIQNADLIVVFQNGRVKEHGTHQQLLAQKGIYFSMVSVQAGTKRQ
Multidrug resistance-associated protein 1, sequence (P33527 whole entry): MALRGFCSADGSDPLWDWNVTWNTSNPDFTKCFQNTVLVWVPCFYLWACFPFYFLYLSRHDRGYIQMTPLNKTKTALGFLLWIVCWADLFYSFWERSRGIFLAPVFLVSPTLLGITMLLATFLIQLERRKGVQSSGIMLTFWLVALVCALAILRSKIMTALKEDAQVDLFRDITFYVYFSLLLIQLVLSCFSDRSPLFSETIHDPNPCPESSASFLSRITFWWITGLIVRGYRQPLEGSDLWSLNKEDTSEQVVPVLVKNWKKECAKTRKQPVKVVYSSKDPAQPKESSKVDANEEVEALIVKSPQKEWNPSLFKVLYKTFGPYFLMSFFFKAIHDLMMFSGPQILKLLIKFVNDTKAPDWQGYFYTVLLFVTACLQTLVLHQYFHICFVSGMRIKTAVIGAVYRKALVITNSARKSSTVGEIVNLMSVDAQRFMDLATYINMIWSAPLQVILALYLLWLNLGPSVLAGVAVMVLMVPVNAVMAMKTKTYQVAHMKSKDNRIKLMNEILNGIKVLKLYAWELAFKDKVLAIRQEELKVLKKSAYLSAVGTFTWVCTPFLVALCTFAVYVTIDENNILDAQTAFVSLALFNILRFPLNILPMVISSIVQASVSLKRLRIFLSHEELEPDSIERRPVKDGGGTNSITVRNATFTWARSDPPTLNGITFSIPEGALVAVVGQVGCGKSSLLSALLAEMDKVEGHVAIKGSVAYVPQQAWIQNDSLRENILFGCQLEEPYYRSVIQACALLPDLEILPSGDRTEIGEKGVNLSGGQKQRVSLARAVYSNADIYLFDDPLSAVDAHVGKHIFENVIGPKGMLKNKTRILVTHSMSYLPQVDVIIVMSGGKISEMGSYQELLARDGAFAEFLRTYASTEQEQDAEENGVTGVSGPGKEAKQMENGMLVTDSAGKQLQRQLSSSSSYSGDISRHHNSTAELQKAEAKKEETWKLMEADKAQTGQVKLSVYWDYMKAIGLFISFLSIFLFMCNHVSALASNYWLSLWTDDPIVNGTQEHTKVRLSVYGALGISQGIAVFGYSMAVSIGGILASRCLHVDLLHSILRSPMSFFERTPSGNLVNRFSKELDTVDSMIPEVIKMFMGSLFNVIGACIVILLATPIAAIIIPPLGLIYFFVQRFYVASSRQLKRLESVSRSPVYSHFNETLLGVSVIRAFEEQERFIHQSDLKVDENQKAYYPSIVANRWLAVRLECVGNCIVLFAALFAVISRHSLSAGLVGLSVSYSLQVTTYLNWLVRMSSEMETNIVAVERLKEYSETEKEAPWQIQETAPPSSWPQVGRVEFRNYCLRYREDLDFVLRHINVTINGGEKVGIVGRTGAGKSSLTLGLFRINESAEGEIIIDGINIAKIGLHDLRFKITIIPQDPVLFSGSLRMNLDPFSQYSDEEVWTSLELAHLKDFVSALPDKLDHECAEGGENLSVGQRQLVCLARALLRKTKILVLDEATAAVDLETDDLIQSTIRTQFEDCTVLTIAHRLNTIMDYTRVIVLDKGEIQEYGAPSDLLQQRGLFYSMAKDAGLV

As to `COc1ccc(/C=C/NC(=O)c2c(-c3cc(OC)c(OC)c(OC)c3)c(-c3cc(OC)c(OC)c(OC)c3)c(C(=O)N/C=C/c3ccc(OC)cc3)n2CCc2ccc(OC)cc2)cc1`, the fold change (FC) in the data set filed under Homo sapiens [1] was 66. As to `CC(C)[C@H](NC(=O)[C@H](CO)NC(=O)[C@@H](N)Cc1ccc(O)cc1)C(=O)O` (H-Tyr-Ser-Val-OH), the results for the fold change (FC) in the data set filed under Homo sapiens [2] and in the data set filed under Homo sapiens [3] were 1 to 2 and 3, respectively. With `O=C1CCC[C@@H]2[C@H]3CCCN4CCC[C@@H](CN12)[C@@H]34`, the fold change (FC) in the data set listed under Homo sapiens [4] worked out at 2.2. For the compound `CN1c2ccccc2[C@@]23C[C@H]4C(=O)N5[C@H]6N(C[C@@]7(C)O[C@@H]7C2)c2ccccc2[C@@]6(C)C[C@H]5C(=O)N4[C@H]13`, in the data set listed under Homo sapiens [5], the fold change (FC) amounted to 2. Regarding `COc1cc2c(cc1O)CCN[C@]21CS[C@@H]2c3c(OC(C)=O)c(C)c4c(c3[C@H](COC1=O)N1[C@@H]2[C@H]2c3c(cc(C)c(OC)c3O)C[C@@H]([C@@H]1O)N2C)OCO4` [TRABECTEDIN], the “fold change (FC)” value in data set [6] is reported as 16. On to `CCCCCCCCC(CC(=O)CCCCCCC(=O)O)n1cnc2c(N)ncnc21` (configuration not stated), for which the fold change (FC) in the data set with K562/A02 lay in the range of 1.5 to 2.7. As to `COC(=O)c1c(-c2ccc(O)cc2)c(-c2ccc(O)cc2)cn1CC(=O)c1ccc(OC)cc1`, the fold change (FC) in the data set filed under Homo sapiens [7] amounted to 5.

As to `CN1[C@@H](CC(=O)c2ccccc2)CCC[C@H]1CC(O)c1ccccc1` (some centres not stated), the figures for the fold change (FC) in the data set filed under Homo sapiens [8] and in the data set filed under Homo sapiens [9] were 2.5 to 3 and 3.5, respectively. As to H-KILRGVCKKIMRTFLRRISKDILTGKK-OH, the fold change (FC) with NCI-H460 was found to be 5. With `Cn1c2ccccc2c(=O)c2c(O)cc3c(c21)CC(C(C)(O)CO)O3` (configuration not stated) [GRAVACRIDONDIOL], the Ratio in data set [10] is reported as 1.72.

As for `CC[C@@H](O)[C@H]1CC[C@H]2O[C@H]3CCN1[C@@H]2[C@@H]1C3O/C(=C2\OC(=O)C(C)=C2OC)[C@H]1C` (some centres not stated), in the data set listed under Homo sapiens [11], the fold change (FC) is 2. Regarding `C[n+]1cc2c3c(ccc2c2ccc4cc5c(cc4c21)OCO5)OCO3`, the fold change (FC) in the data set listed under Homo sapiens [9] amounted to 18.

`COc1ccc2c(c1)C(=O)c1c(OC)c(OC)c(OC)c3ccnc-2c13`: the ED50 with MES-SA/Dx5 was determined as 0.03 mg/L. For the compound `O=C(/C=C/C=C/c1ccc2c(c1)OCO2)N1CCCCC1`, the values for the fold change (FC) in the data set filed under Homo sapiens [12], in the data set listed under Homo sapiens [13] and in the data set filed under Homo sapiens [14] were 32, 7 and 14, respectively. For the compound `CCCCC(CC(C)=O)n1cnc2c(N)ncnc21` (configuration not stated), the fold change (FC) with K562/A02 lay within 1.5 to 2.7. For the compound `COc1cc2c(cc1OC)-c1c(OC)c(OC)cc3c1[C@H](C2)N(C)CC3` [GLAUCINE], the “fold change (FC)” value worked out at 22 in data set [15], 7 in the data set listed under Homo sapiens [12] and 7 in the data set listed under Homo sapiens [16].

These data come from ChEMBL document CHEMBL4190243, “Natural alkaloids as P-gp inhibitors for multidrug resistance reversal in cancer” (Eur J Med Chem, 2017).
